How the values were obtained:
[1] = target: Module 8 A-domain protein (Brevibacillus texasporus, UniProt Q2VQ14); assay: ATP-PPi exchange assay, Module 8 A-domain; type: biochemical; conditions: 0.5 mM amino acid, 2 μM protein, 37° C., 15 min
Method: (§1) Cloning, overexpression, and purification of His10-tagged BT A-domain proteins. DNA fragments encoding the A-domains of the BT NRPS Modules 8, 5, 7, 4 and 2 (Bt8A, Bt5A, Bt7A, Bt4A and Bt2A) were PCR-amplified and the PCR products were inserted into the His10-tag recombinant protein expression vector pET16b (Novagen). The A-domain borders were determined as defined by (Konz, et al., 1999). The expression constructs were transformed into the E.coli BL21 -AI strain (Invitrogen). Transformants were grown in L-broth at 37° C. to an A600 of 0.6 and then induced with 1 mM IPTG (isopropyl-β-D-thiogalactopyranoside) plus 0.2% L-arabinose. The cells were allowed to grow for two additional hours at 30° C. before being harvested. Purification of the His10-tag recombinant proteins was achieved using the TALON metal affinity resins (BD Biosciences) under conditions recommended in the manual with modifications. Briefly, the E. coli cells were broken by sonication. Cell lysates were cleared by centrifugation at 25,000× g for one hour. […] Eluted proteins were dialyzed against a buffer (50 mM HEPES, pH 8.0, 100 mM sodium chloride, 10 mM magnesium chloride, and 1 mM EDTA) and then analyzed with SDS PAGE plus Coomassie Blue staining. […] Concentrations of the purified proteins were determined by using the calculated molar extinction coefficient for the A280.
(§2) ATP-PPi exchange assay. […] The charcoal/water suspension was added to a scintillation vial containing 5.0 ml of scintillation fluid, and the bound radioactivity was determined by liquid scintillation counting. […]
(§3) Since a purified recombinant A-domain of an NRPS module can selectively and efficiently activate the cognate amino acid substrate of the NRPS module in an ATP-PPi exchange assay (Konz, et al., 1999; Mootz & Marahiel, 1997), ATP-PPi exchange assays have been used to experimentally establish NRPS module specificities and novel NRPS codons. […] A-domain specificities were determined in ATP-PPi exchange and aa Km assays (see Methods and Materials), and the results are shown in FIG. 5. […]

[2] = target: Module 5 A-domain protein (Brevibacillus texasporus, UniProt Q2VQ15); assay: ATP-PPi exchange assay, Module 5 A-domain; type: biochemical; conditions: 0.5 mM amino acid, 0.2 μM protein, 37° C., 15 min
Method: as §1, §2, §3

[3] = target: Module 4 A-domain protein (Brevibacillus texasporus, UniProt Q2VQ15); assay: ATP-PPi exchange assay, Module 4 A-domain; type: biochemical; conditions: 0.5 mM amino acid, 0.2 μM protein, 37° C., 15 min
Method: as §1, §2, §3

[4] = tested on: Module 2 A-domain protein; assay: ATP-PPi exchange assay, Module 2 A-domain; type: biochemical, Brevibacillus texasporus; conditions: 0.5 mM amino acid, 37° C., 15 min
Method: Cloning, overexpression, and purification of His10-tagged BT A-domain proteins. DNA fragments encoding the A-domains of the BT NRPS Modules 8, 5, 7, 4 and 2 (Bt8A, Bt5A, Bt7A, Bt4A and Bt2A) were PCR-amplified and the PCR products were inserted into the His10-tag recombinant protein expression vector pET16b (Novagen). The A-domain borders were determined as defined by (Konz, et al., 1999). The expression constructs were transformed into the E.coli BL21 -AI strain (Invitrogen). Transformants were grown in L-broth at 37° C. to an A600 of 0.6 and then induced with 1 mM IPTG (isopropyl-β-D-thiogalactopyranoside) plus 0.2% L-arabinose. The cells were allowed to grow for two additional hours at 30° C. before being harvested. Purification of the His10-tag recombinant proteins was achieved using the TALON metal affinity resins (BD Biosciences) under conditions recommended in the manual with modifications. Briefly, the E. coli cells were broken by sonication. Cell lysates were cleared by centrifugation at 25,000× g for one hour. His-tagged recombinant proteins were then incubated with the TALON resin, washed, and eluted with 500 mM imidazole. Eluted proteins were dialyzed against a buffer (50 mM HEPES, pH 8.0, 100 mM sodium chloride, 10 mM magnesium chloride, and 1 mM EDTA) and then analyzed with SDS PAGE plus Coomassie Blue staining. […] Concentrations of the purified proteins were determined by using the calculated molar extinction coefficient for the A280.
ATP-PPi exchange assay. ATP-PPi exchange assays were performed to determine the substrate specificity of an A-domain. ATP-PPi exchanges were assayed as previously described (Stachelhaus, et al., 1998) with minor modifications. The assay mixture contained 50 mM HEPES (pH 8.0), 100 mM NaCl, 10 mM MgCl2, 2 mM ATP, 0.5 mM amino acid, 0.05 mM PPi, 0.15 μCi tetrasodium [^32P]pyrophosphate. Exchange was initiated by addition of purified recombinant A-domain proteins to a total volume of 0.1 ml. The protein concentrations were 0.2 μM for Module 4 and Module 5 A-domains while 2 μM for Module 7 and Module 8 A-domains. After incubation at 37° C. for 15 min, the reaction was stopped by addition of 0.5 ml of Termination Mix (100 mM tetrasodium pyrophosphate, 3.5% HClO4, and 1.6% [w/v] activated charcoal). The charcoal was pelleted by centrifugation, washed first with 40 mM pyrophosphate plus 1.4% perchloric acid and then with water, and was re-suspended in 0.5 ml of water. The charcoal/water suspension was added to a scintillation vial containing 5.0 ml of scintillation fluid, and the bound radioactivity was determined by liquid scintillation counting. The apparent Km values were determined with substrate concentrations ranging from 0.1 to 10 mM.
Since a purified recombinant A-domain of an NRPS module can selectively and efficiently activate the cognate amino acid substrate of the NRPS module in an ATP-PPi exchange assay (Konz, et al., 1999; Mootz & Marahiel, 1997), ATP-PPi exchange assays have been used to experimentally establish NRPS module specificities and novel NRPS codons. Recombinant A-domains of Modules 8, 5, 7 ,4 and 2 of the BT NRPS were produced and purified as described in Methods and Materials. Almost completely soluble recombinant A-domain proteins were obtained. A-domain specificities were determined in ATP-PPi exchange and aa Km assays (see Methods and Materials), and the results are shown in FIG. 5. […]

[5] = target: T1, Module 7 A-domain protein (Brevibacillus texasporus, UniProt Q2VQ15); assay: ATP-PPi exchange assay, Module 7 A-domain; type: biochemical
T1 sequence (Q2VQ15 3560-4063): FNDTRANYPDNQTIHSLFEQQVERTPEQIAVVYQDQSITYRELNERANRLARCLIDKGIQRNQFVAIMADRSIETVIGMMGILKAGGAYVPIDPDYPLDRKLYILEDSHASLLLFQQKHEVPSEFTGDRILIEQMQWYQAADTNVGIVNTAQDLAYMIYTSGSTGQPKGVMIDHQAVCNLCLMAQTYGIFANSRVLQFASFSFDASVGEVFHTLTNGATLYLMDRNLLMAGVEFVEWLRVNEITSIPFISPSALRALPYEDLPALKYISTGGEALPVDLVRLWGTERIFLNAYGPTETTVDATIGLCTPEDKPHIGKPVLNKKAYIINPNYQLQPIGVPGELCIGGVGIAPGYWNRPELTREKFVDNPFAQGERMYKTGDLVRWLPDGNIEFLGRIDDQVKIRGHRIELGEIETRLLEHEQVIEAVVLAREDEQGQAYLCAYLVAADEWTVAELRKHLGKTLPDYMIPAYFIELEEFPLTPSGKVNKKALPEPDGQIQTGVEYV
Method: as §1, with “harvested.” for “harvested. Purification of the His10-tag recombinant proteins was achieved using the TALON metal affinity resins (BD Biosciences) under conditions recommended in the manual with modifications. Briefly, the E. coli cells were broken by sonication. Cell lysates were cleared by centrifugation at 25,000× g for one hour.”
as §2

Sequence of Module 8 A-domain protein (Q2VQ14 entry or part of it): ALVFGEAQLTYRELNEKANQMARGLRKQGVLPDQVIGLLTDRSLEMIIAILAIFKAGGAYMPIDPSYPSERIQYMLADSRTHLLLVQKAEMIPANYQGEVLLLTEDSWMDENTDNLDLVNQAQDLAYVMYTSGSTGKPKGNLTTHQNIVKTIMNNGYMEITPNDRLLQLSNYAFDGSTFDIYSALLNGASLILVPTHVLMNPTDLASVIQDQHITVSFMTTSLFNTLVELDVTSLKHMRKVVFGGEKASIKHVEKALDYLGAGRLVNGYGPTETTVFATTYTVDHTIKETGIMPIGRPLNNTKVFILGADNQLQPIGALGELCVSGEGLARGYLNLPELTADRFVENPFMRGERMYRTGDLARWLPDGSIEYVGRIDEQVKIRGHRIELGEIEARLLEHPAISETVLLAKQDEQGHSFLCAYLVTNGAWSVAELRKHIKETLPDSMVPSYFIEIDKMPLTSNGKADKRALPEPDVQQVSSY
Sequence of Module 5 A-domain protein (Q2VQ15 entry or part of it): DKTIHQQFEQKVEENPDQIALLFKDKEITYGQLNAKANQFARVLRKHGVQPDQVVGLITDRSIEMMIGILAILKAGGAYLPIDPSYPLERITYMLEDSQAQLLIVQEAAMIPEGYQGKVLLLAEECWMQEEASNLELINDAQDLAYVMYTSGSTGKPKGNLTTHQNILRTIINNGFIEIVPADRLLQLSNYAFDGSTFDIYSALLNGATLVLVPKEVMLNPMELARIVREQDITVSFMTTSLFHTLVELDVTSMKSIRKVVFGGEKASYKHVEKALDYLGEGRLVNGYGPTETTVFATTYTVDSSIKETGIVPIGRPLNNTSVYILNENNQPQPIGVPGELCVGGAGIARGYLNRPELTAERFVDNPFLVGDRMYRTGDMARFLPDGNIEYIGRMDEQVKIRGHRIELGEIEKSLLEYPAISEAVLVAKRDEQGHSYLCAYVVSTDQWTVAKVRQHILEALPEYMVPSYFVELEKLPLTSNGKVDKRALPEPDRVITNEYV
Sequence of Module 4 A-domain protein (Q2VQ15 entry or part of it): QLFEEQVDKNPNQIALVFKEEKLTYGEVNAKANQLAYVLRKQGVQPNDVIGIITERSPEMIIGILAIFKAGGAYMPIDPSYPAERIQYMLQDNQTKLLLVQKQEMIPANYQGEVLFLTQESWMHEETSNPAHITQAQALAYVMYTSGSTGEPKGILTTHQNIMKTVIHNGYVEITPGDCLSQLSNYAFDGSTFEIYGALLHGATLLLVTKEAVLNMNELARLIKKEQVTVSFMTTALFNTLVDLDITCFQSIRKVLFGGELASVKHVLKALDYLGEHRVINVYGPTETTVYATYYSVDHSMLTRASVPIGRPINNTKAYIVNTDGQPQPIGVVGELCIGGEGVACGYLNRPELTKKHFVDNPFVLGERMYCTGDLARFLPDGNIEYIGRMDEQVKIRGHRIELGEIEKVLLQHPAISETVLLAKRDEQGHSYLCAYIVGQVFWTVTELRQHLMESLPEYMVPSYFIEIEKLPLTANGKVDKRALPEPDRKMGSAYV

Compound	relative substrate activation (highest activity defined as 100%) [1] [%]	relative substrate activation (highest activity defined as 100%) [2] [%]	relative substrate activation (highest activity defined as 100%) [3] [%]	relative substrate activation (highest activity defined as 100%) [4] [%]	substrate activation ([5]; 0.5 mM amino acid, 2 μM protein, 20 proteinogenic amino acids and L-Orn tested)	Km ([5]; substrate 0.1 to 10 mM, read-out: apparent Km) [µM]
CC[C@H](C)[C@H](N)C(=O)O [L-Ile]	4	23	100	19	–	–
NCCCC[C@H](N)C(=O)O [L-Lys]	10	–	–	–	only amino acid that activated	1120
CC(C)[C@H](N)C(=O)O [L-Val]	100	100	9	67	–	–
CC(C)C[C@H](N)C(=O)O [L-Leu]	–	17	7	98	–	–
N[C@@H](Cc1ccccc1)C(=O)O [L-Phe]	–	–	–	3.5	–	–
